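Where inhibition never reached the appropriate level, the endpoint shown equals the highest concentration tested. Otherwise, values were interpolated linearly from a five-concentration, 48-hour dose response in 96-well plates. At the TGI there is no net growth.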
Tests used:
Assay in all cases: growth of human tumour cells (NCI), 48 h
[1] = system: 786-0 renal
[2] = system: A498 renal
[3] = system: A549 NSCLC
[4] = system: ACHN renal
[5] = system: CAKI-1 renal
[6] = system: CCRF-CEM leukemia
[7] = system: COLO 205 colon
[8] = system: DLD-1 colon
[9] = system: DMS 114 small cell lung
[10] = system: HCT-116 colon
[11] = system: HCT-15 colon
[12] = system: HL-60(TB) leukemia
[13] = system: HOP-18 NSCLC
[14] = system: HOP-62 NSCLC
[15] = system: HOP-92 NSCLC
[16] = system: HT29 colon
[17] = system: IGROV1 ovarian
[18] = system: K-562 leukemia
[19] = system: KM12 colon
[20] = system: KM20L2 colon
[21] = system: LOX IMVI melanoma
[22] = system: LXFL 529 NSCLC
[23] = system: M14 melanoma
[24] = system: M19-MEL melanoma
[25] = system: MALME-3M melanoma
[26] = system: MOLT-4 leukemia
[27] = system: NCI-H226 lung
[28] = system: NCI-H23 lung
[29] = system: NCI-H460 lung
[30] = system: NCI-H522 lung
[31] = system: OVCAR-3 ovarian
[32] = system: OVCAR-4 ovarian
[33] = system: OVCAR-5 ovarian
[34] = system: OVCAR-8 ovarian
[35] = system: RPMI-8226 leukemia
[36] = system: RXF-631 renal
[37] = system: SF-268 CNS
[38] = system: SF-295 CNS
[39] = system: SF-539 CNS
[40] = system: SK-MEL-2 melanoma
[41] = system: SK-MEL-28 melanoma
[42] = system: SK-MEL-5 melanoma
[43] = system: SK-OV-3 ovarian
[44] = system: SN12C renal
[45] = system: SNB-19 CNS
[46] = system: SNB-75 CNS
[47] = system: SW-620 colon
[48] = system: TK-10 renal
[49] = system: U251 CNS
[50] = system: UACC-257 melanoma
[51] = system: UACC-62 melanoma
[52] = system: UO-31 renal
[53] = system: DMS 273 small cell lung
[54] = system: EKVX NSCLC
[55] = system: HCC-2998 colon
[56] = system: RXF 393 renal
[57] = system: SNB-78 CNS
[58] = system: XF 498 CNS

Measured: TGI

Cc1cc(N(CCC#N)CCC#N)ccc1/C=C1N=C(/C=C\c2ccccc2)N(NC(=O)CC(=O)Nc2ccccc2Cl)C\1=O
> 100 µM: [1] | [2] | [3] | [4] | [5] | [6] | [7] | [8] | [9] | [10] | [11] | [12] | [13] | [14] | [15] | [16] | [17] | [18] | [19] | [20] | [21] | [22] | [23] | [24] | [25] | [26] | [27] | [28] | [29] | [30] | [31] | [32] | [33] | [34] | [35] | [36] | [37] | [38] | [39] | [40] | [41] | [42] | [43] | [44] | [45] | [46] | [47] | [48] | [49] | [50] | [51] | [52]

COc1cccc(C2=NC(C(C)C)CO2)c1OC (stereo unspecified)
> 100 µM: [1] | [2] | [3] | [4] | [5] | [6] | [7] | [8] | [9] | [53] | [54] | [55] | [11] | [12] | [14] | [15] | [16] | [17] | [18] | [19] | [20] | [21] | [22] | [23] | [24] | [25] | [26] | [27] | [28] | [29] | [30] | [31] | [32] | [33] | [34] | [35] | [56] | [37] | [38] | [39] | [40] | [41] | [42] | [43] | [44] | [45] | [46] | [57] | [47] | [48] | [50] | [51] | [52] | [58]

From PubChem BioAssay (NCI)
